Consider two molecules from patent US20050282751A1, “Therapeutic agent for renal anemia” (Ajinomoto Co., Inc., priority 2004, published 2005).

For series [1], the system named is patients with renal anemia. In words: Clinical test: Cre (creatinine), enzymatic method. It is filed as in vivo, human. As to conditions: effective cases 1, 2, 4 and 6. An excerpt: (§1) 1.3 g of an amino acid preparation (trade name: Argi U granules, a product of Ajinomoto Pharma Co. Ltd.) (1.0 g of arginine) was orally administered in two portions everyday to each of 8 patients having an illness diagnosed as renal anemia (cases of chronic renal failure in conservative stage accompanying renal anemia, whose age, hemocytometric results and results of general biochemical tests are shown in Table 1). The administration period was at the longest 18 weeks. The amount of each of hemoglobin, BUN (blood urea nitrogen), Cre (creatinine), Fe and erythropoietin in blood was determined by methods described below.
Cre was determined by an enzymatic method (sarcosine oxidase[…]POD method).

Series [2] has as its system patients with renal anemia. Nature of the series: Clinical test: hemoglobin in patients with renal anemia, oral Argi U granules. The class given is in vivo, human. As for the experimental part:
The administration period was at the longest 18 weeks. The amount of each of hemoglobin, BUN (blood urea nitrogen), Cre (creatinine), Fe and erythropoietin in blood was determined by methods described below.
Hemoglobin was determined with an automatic blood cell analysis device.
The hemoglobin concentration of each case determined before and after the administration of the amino acid preparation is shown in Table 2.
For typical three patients, a change in hemoglobin concentration was given as ΔHb value (amount of change of hemoglobin) calculated by deducting the hemoglobin concentration before the administration of the amino acid preparation from the hemoglobin concentration after the administration thereof in FIG. 1.

In series [3] the test system is patients with renal anemia. Nature of the series: Clinical test: side effects. It is filed as in vivo, human. The protocol: 1.3 g of an amino acid preparation (trade name: Argi U granules, a product of Ajinomoto Pharma Co. Ltd.) (1.0 g of […] in conservative stage accompanying renal anemia, whose age, hemocytometric results and results of general biochemical tests are shown in Table 1). The administration period was at the longest 18 weeks. The amount of each of hemoglobin, BUN (blood urea nitrogen), Cre (creatinine), Fe and erythropoietin in blood was determined by methods described below.

Series [4] relates to patients with renal anemia. In words: Clinical test: erythropoietin in blood, ELISA. It is filed as in vivo, human.
Description: as §1
Erythropoietin was determined by ELISA method.
On the technique in general: ELISA stands for enzyme-linked immunosorbent assay.

Series [5] relates to patients with renal anemia. The following applies: conventional treatment with rHuEPO preparation; cited from earlier work.

`N=C(N)NCCC[C@H](N)C(=O)O` [L-arginine]: in series [1], the renal function result was “recovery of the renal function was recognized”. Also, the “anemia after discontinuance of administration” value in series [2] (2 cases in the 7 effective cases) is on record as “anemia became worse”. In addition, the “Hb after further administration” value in series [2] (2.6 g/day for 1 month, increased from 10.7 g/dl) was found to be 11.5 g/dL. For the same molecule, the judgement of results in series [2] (cases 1 to 7) is given as “effective”; in series [2] (cases 8 and 9), “ineffective”. In addition, in series [2] (other 3 effective cases), the “Hb after discontinuance of administration” value was “Hb was not lowered”. For the same molecule, the results for the side effect entry in series [3] (9 administration cases) and in series [3] (further administration of 2.6 g/day for 1 month) were “No evident side effect” and “no obvious side effect”, respectively. In series [4] (L-arginine versus conventional rHuEPO treatment), the “EPO concentration in blood relative to rHuEPO preparation treatment” value is reported as “less than ⅙”. For the same molecule, in series [4] (after the administration of L-arginine), the “EPO concentration in blood, at the highest” value is reported as “about 20 mU/mL”. For the same molecule, the results for the “Epo productivity (Epo concentration in blood)” value in series [4] (all the effective cases) and in series [4] (the two ineffective cases) were “increased” and “lowered”, respectively.
“rHuEPO preparation: recombinant erythropoietin preparation, conventional treatment of renal anemia”: the “EPO concentration in blood” value in series [5] is listed as “about 130 mU/mL”.
